Test results: patent publication US20140288182A1, “USE OF CARBAMIDE PEROXIDE INJECTION IN PREPARATION OF VIRUS INACTIVATION MEDICAMENTS FOR TREATING DISEASES” (Wuxi Zhaozhen Radiation Technology Co., Ltd., priority 2013, published 2014)

Tested on: thoracic aorta blood vessel plaque
Experiment: New-Zealand rabbit model of blood vessel plaque (CTA angiography and MR)
Type: in vivo
Description: The New-Zealand rabbit model of blood vessel plaque is a common animal experimental model. […] The blood vessel plaque was taken as the target region and positioned, and a radiotherapy plan was made. 1.5 h after intraperitoneal injection of 5-ALA (80 mg/kg body weight), the substrate was intravenously dripped, and the irradiation to the blood vessel plaque was performed once with 5 Gy. The New-Zealand rabbit was continually fed for 1 week.

Structure (SMILES): NCC(=O)CCC(=O)O [5-ALA]
- regression of thoracic aorta blood vessel plaque (CTA angiography and MR detection) (5-ALA 80 mg/kg intraperitoneal 1.5 h before, substrate intravenously dripped, plaque irradiated once with 5 Gy, examined on the seventh day after treatment): completely disappeared
- plaque in the blood vessel of a rabbit by CT examination (FIG. 3) (photosensitizer given orally, irradiated with high energy X-ray, CT examination 5 days later): eliminated
